# Reference: patent US20050197350A1, “Novel quinoline, tetrahydroquinazoline, and pyrimidine derivatives and methods of treatment related to the use thereof” (TAISHO PHARMACEUTICAL CO., LTD., priority 2003, published 2005)
# Read-outs that look alike come from different tables or passages of the source.
# Tested on: MCH receptors
# Assay: MCH receptor activity class (method not given)
# [1] = class by percent of control at 10^-7 M or IC50
# [2] = activity class per percent of control at 10^-7 M or IC50
# [3] = MCH receptor, class by percent of control at 10^-7 M or IC50
# [4] = MCH receptor activity class 1-3 (percent of control at 10^-7 M or IC50)
# [5] = activity class 1-3: percent of control at 10^-7 M or IC50
SMILES,class [1],further results
COc1cc(Cl)ccc1CNC[C@H]1CC[C@@H](Nc2nc3c(c(N(C)C)n2)CCCC3)CC1 [compound 1507],3 (Class 3 The value of percent of control at 10^−7 M was more than 60% or the value of IC50 was more than 200 nM.),
CC(NC(=O)N[C@H]1CC[C@@H](Nc2cc(N(C)C)c3ccccc3n2)CC1)c1ccccc1 (relative stereo) [compound 2136],3 (Class 3 The value of percent of control at 10^−7 M was more than 60% or the value of IC50 was more than 200 nM.),
CN(C)c1cc(N[C@H]2CC[C@@H](CNCc3c[nH]c4ccc(Br)cc34)CC2)nc2ccccc12 [compound 1130],,class [2]: 2 (Class 2: The value of percent of control at 10^−7 M was from 40% to 60% or the value of IC′50 was from 50 nM to 200 nM.)
Cc1ccccc1NC(=O)N[C@H]1CC[C@@H](Nc2nccc(N(C)C)n2)CC1 [compound 2188],3 (Class 3 The value of percent of control at 10^−7 M was more than 60% or the value of IC50 was more than 200 nM.),
COC(C(=O)N[C@H]1CC[C@@H](Nc2cc(N(C)C)c3ccccc3n2)CC1)c1ccccc1 (relative stereo) [compound 777],3 (Class 3 The value of percent of control at 10^−7 M was more than 60% or the value of IC50 was more than 200 nM.),
CN(C)c1cc(N[C@H]2CC[C@@H](NC(=O)c3cccc4ccccc34)CC2)nc2ccccc12 [compound 109],,class [3]: 3 (Class 3 The value of percent of control at 10^−7 M was more than 60% or the value of IC50 was more than 200 nM.)
CC(CCN[C@H]1CC[C@@H](Nc2cc(N(C)C)c3ccccc3n2)CC1)c1ccccc1 (relative stereo) [compound 1106],,class [2]: 3 (Class 3 The value of percent of control at 10^−7 M was more than 60% or the value of IC50 was more than 200 nM.)
CN(C)c1cc(N[C@H]2CC[C@@H](NCC3CN(C(c4ccccc4)c4ccccc4)C3)CC2)nc2ccccc12 [compound 1462],1 (Class 1: The value of percent of control at 10^−7 M was less than 40% or the value of IC50 was less than 50 nM.),
COc1ccc(C)cc1NC(=O)NC[C@H]1CC[C@@H](Nc2cc(N(C)C)c3ccccc3n2)CC1 [compound 2400],,class [4]: 3 (Class 3 The value of percent of control at 10^−7 M was more than 60% or the value of IC50 was more than 200 nM.)
CN(C)c1nc(N[C@H]2CC[C@@H](NC(=S)NCC3CCCO3)CC2)nc2c1CCCC2 (relative stereo) [compound 1958],,class [3]: 3 (Class 3 The value of percent of control at 10^−7 M was more than 60% or the value of IC50 was more than 200 nM.)
COc1ccc(OC)c(CN[C@H]2CC[C@@H](Nc3nccc(N(C)C)n3)CC2)c1 [compound 1208],3 (Class 3 The value of percent of control at 10^−7 M was more than 60% or the value of IC50 was more than 200 nM.),
Cc1cc(C(=O)N[C@H]2CC[C@@H](Nc3cc(N(C)C)c4ccccc4n3)CC2)n(C)n1 [compound 103],,class [3]: 3 (Class 3 The value of percent of control at 10^−7 M was more than 60% or the value of IC50 was more than 200 nM.)
"Cc1cc(N(C)C)nc(N[C@H]2CC[C@@H](NC(=O)c3ccc(OC(F)(F)F)cc3)CC2)n1 [Example 2569, N-(cis-4-{[4-(dimethylamino)-6-methylpyrimidin-2-yl]amino}cyclohexyl)-4-(trifluoromethoxy)benzamide]",,class: 3
CN(C)c1cc(N[C@H]2CC[C@@H](NC(=O)[C@H](Cc3cn(Cc4ccccc4)cn3)NC(=O)OC(C)(C)C)CC2)nc2ccccc12 [compound 709],3 (Class 3 The value of percent of control at 10^−7 M was more than 60% or the value of IC50 was more than 200 nM.),
CN(C)c1nc(N[C@H]2CC[C@@H](NC(=S)NCCN3CCCCC3)CC2)nc2c1CCCC2 [compound 2081],,class [3]: 3 (Class 3 The value of percent of control at 10^−7 M was more than 60% or the value of IC50 was more than 200 nM.)
CN(C)c1cc(N[C@H]2CC[C@@H](NCCc3c(-c4ccccc4)[nH]c4ccccc34)CC2)nc2ccccc12 [compound 1459],2 (Class 2: The value of percent of control at 10^−7 M was from 40% to 60% or the value of IC′50 was from 50 nM to 200 nM.),
CC(C)c1ccc(NC(=O)N[C@H]2CC[C@@H](Nc3nc4c(c(N(C)C)n3)CCCC4)CC2)cc1 [compound 1829],3 (Class 3 The value of percent of control at 10^−7 M was more than 60% or the value of IC50 was more than 200 nM.),
CN(C)c1nc(N[C@H]2CC[C@@H](NC(=O)OCCOCc3ccccc3)CC2)nc2c1CCCC2 [compound 1579],,class [5]: 3 (Class 3 The value of percent of control at 10^−7 M was more than 60% or the value of IC50 was more than 200 nM.)
CN(C)c1ccnc(N[C@H]2CC[C@@H](CNC(=O)Cc3ccc(F)cc3Cl)CC2)n1 [compound 927],3 (Class 3 The value of percent of control at 10^−7 M was more than 60% or the value of IC50 was more than 200 nM.),
CN(C)c1nc(N[C@H]2CC[C@@H](NC(=S)Nc3ccc(Oc4ccc([N+](=O)[O-])cc4)cc3)CC2)nc2c1CCCC2 [compound 2049],,class [3]: 3 (Class 3 The value of percent of control at 10^−7 M was more than 60% or the value of IC50 was more than 200 nM.)

SMILES,class [1],further results
COc1ccc(CN[C@H]2CC[C@@H](Nc3nccc(N(C)C)n3)CC2)c2ccccc12 [compound 1209],3 (Class 3 The value of percent of control at 10^−7 M was more than 60% or the value of IC50 was more than 200 nM.),
CN(C)c1ccnc(N[C@H]2CC[C@@H](NC(=O)C(CC(=O)c3ccc(Br)cc3)c3c[nH]c4ccccc34)CC2)n1 (relative stereo) [compound 856],2 (Class 2: The value of percent of control at 10^−7 M was from 40% to 60% or the value of IC′50 was from 50 nM to 200 nM.),
COc1cccc2cc(C(=O)N[C@H]3CC[C@@H](Nc4nccc(N(C)C)n4)CC3)oc12 [compound 921],3 (Class 3 The value of percent of control at 10^−7 M was more than 60% or the value of IC50 was more than 200 nM.),
"COc1cc(C(=O)NC[C@H]2CC[C@@H](Nc3nccc(N(C)C)n3)CC2)ccc1[N+](=O)[O-] [compound 941, N-[(cis-4-{[4-(dimethylamino)pyrimidin-2-yl]amino}cyclohexyl)methyl]-3-methoxy-4-nitrobenzamide]",1 (Class 1: The value of percent of control at 10^−7 M was less than 40% or the value of IC50 was less than 50 nM.),
"Cc1cc(Br)ccc1NC(=O)N[C@H]1CC[C@@H](Nc2nccc(N(C)C)n2)CC1 [compound 2249, N-(4-bromo-2-methylphenyl)-N′-(cis-4-{[4-(dimethylamino)pyrimidin-2-yl]amino}cyclohexyl)urea]",2 (Class 2: The value of percent of control at 10^−7 M was from 40% to 60% or the value of IC′50 was from 50 nM to 200 nM.),
CCOc1cc(CNC[C@H]2CC[C@@H](Nc3cc(N(C)C)c4ccccc4n3)CC2)ccc1OC [compound 1134],,class [2]: 3 (Class 3 The value of percent of control at 10^−7 M was more than 60% or the value of IC50 was more than 200 nM.)
CN(C)c1nc(N[C@H]2CC[C@@H](CNCc3ccc4c(c3)OCO4)CC2)nc2c1CCCC2 [compound 1424],3 (Class 3 The value of percent of control at 10^−7 M was more than 60% or the value of IC50 was more than 200 nM.),
COc1cc(CC(=O)N[C@H]2CC[C@@H](Nc3nccc(N(C)C)n3)CC2)cc(OC)c1O [compound 839],3 (Class 3 The value of percent of control at 10^−7 M was more than 60% or the value of IC50 was more than 200 nM.),
CN(C)c1ccnc(N[C@H]2CC[C@@H](NC(=S)NCc3cccc(Cl)c3)CC2)n1 [compound 2337],,class [4]: 3 (Class 3 The value of percent of control at 10^−7 M was more than 60% or the value of IC50 was more than 200 nM.)
CCCSc1ncccc1C(=O)NC[C@H]1CC[C@@H](Nc2nccc(N(C)C)n2)CC1 [compound 429],,class (class 1-3 by percent of control at 10^-7 M or IC50): 2 (Class 2: The value of percent of control at 10^−7 M was from 40% to 60% or the value of IC′50 was from 50 nM to 200 nM.)
CN(C)c1ccnc(N[C@H]2CC[C@@H](NC(=O)c3ccc([N+](=O)[O-])o3)CC2)n1 [compound 329],3 (Class 3 The value of percent of control at 10^−7 M was more than 60% or the value of IC50 was more than 200 nM.),
CN(C)c1nc(N[C@H]2CC[C@@H](NC(=O)Nc3ccc(I)cc3)CC2)nc2c1CCCC2 [compound 1892],3 (Class 3 The value of percent of control at 10^−7 M was more than 60% or the value of IC50 was more than 200 nM.),
CN(C)c1nc(N[C@H]2CC[C@@H](NC(=O)Nc3cc(Cl)nc(Cl)c3)CC2)nc2c1CCCC2 [compound 1923],,class [3]: 3 (Class 3 The value of percent of control at 10^−7 M was more than 60% or the value of IC50 was more than 200 nM.)
CCOC(=O)[C@H](Cc1ccccc1)NC(=O)N[C@H]1CC[C@@H](Nc2nc3c(c(N(C)C)n2)CCCC3)CC1 (relative stereo) [compound 1730],3 (Class 3 The value of percent of control at 10^−7 M was more than 60% or the value of IC50 was more than 200 nM.),
Cc1cccc(NC(=O)N[C@H]2CC[C@@H](Nc3nc4c(c(N(C)C)n3)CCCC4)CC2)c1C [compound 1696],,class [5]: 3 (Class 3 The value of percent of control at 10^−7 M was more than 60% or the value of IC50 was more than 200 nM.)
COc1ccc(OC)c(CC(=O)N[C@H]2CC[C@@H](Nc3nccc(N(C)C)n3)CC2)c1 [compound 253],3 (Class 3 The value of percent of control at 10^−7 M was more than 60% or the value of IC50 was more than 200 nM.),
CN(C)c1nc(N[C@H]2CC[C@@H](NC(=S)Nc3c(Cl)cc(Cl)cc3Cl)CC2)nc2c1CCCC2 [compound 1754],2 (Class 2: The value of percent of control at 10^−7 M was from 40% to 60% or the value of IC′50 was from 50 nM to 200 nM.),
COC(=O)[C@H](Cc1ccccc1)NC(=O)N[C@H]1CC[C@@H](Nc2cc(N(C)C)c3ccccc3n2)CC1 (relative stereo) [compound 2135],2 (Class 2: The value of percent of control at 10^−7 M was from 40% to 60% or the value of IC′50 was from 50 nM to 200 nM.),
CN(C)c1nc(N[C@H]2CC[C@@H](CNC(=O)Cc3cccc4ccccc34)CC2)nc2c1CCCC2 [compound 651],3 (Class 3 The value of percent of control at 10^−7 M was more than 60% or the value of IC50 was more than 200 nM.),
